Usually EC50 stands for the concentration needed to bring the measured effect to its halfway point. The term Emax denotes the size of the effect at its maximum, as opposed to the concentration needed.

Marks after values point to notes of the source that are not given here. Bounds are passed on as bounds.

This is an account of results in patent publication US11633392B2 (priority 2016, dated 2023).

One data set addresses T1, human opioid δ receptor (Homo sapiens, UniProt P41143).
T1 construct: host or cells: CHO cells
The experiment in a line: Opioid receptor function test (Lance Ultra cAMP Kit), δ receptor. To be noted: for EC50: CHO cells expressing human δ receptor, cAMP, in the presence of forskolin; for Emax: ratio to maximum reaction of control drug SNC80 taken as 100%. The class given is cell-based. The protocol:
(§1) Opioid Receptor Function Test
(§2) The functional activities of the compounds provided by the present invention on the μ, δ, and κ opioid receptors were investigated.
(§3) The test was performed by using Lance Ultra cAMP Kit (PerkinElmer) according to a method predetermined for the kit. In the evaluation of the agonistic activity, CHO cells expressing each of the human opioid receptors (δ, μ, and κ, accession numbers and catalog numbers are mentioned below) and 10 μM of each test compound were reacted for 30 minutes in an assay buffer (1× HBSS, […], pH 7.4, […] (isobutylmethylxanthine), 7.5% BSA) in the presence of forskolin. Subsequently, the cAMP detection reagent included in the kit was added, and 1 hour afterward, time-resolved fluorescence measurement was performed by using the EnVision plate reader (PerkinElmer). The test compounds and the control drugs (δ: SNC80, μ: DAMGO, κ: U-69593) were evaluated in a concentration range of 10^−12 to 10^−5 M, a dose-response curve of each test compound was obtained from the fluorescence values at 665 nm, and EC50 value and the Emax value were calculated. The Emax value was calculated as a ratio of the maximum reaction of the test compound to the maximum reaction of each control drug, which is taken as 100%.
(§4) • δ: Catalog No. CT4607, Accession No. NM_000911.2 • μ: Catalog No. CT4605, Accession No. NM_000914 • κ: Catalog No. CT4606, Accession No. NM_000912 (ChanTest Corporation)

In another data set the target is T2, human opioid μ receptor (Homo sapiens, UniProt P35372).
T2 construct: host or cells: CHO cells
T2 sequence (P35372 whole entry): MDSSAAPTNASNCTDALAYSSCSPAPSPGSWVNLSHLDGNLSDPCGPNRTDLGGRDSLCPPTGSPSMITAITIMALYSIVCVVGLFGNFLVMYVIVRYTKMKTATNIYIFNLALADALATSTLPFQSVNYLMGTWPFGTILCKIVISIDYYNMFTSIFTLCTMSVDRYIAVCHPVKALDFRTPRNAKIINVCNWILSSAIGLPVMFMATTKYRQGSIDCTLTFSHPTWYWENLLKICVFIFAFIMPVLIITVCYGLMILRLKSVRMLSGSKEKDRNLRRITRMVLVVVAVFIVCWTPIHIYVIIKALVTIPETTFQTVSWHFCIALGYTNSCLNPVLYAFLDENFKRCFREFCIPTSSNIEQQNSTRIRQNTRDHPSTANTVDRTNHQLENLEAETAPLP
The experiment in a line: Opioid receptor function test (Lance Ultra cAMP Kit), μ receptor. It counts as cell-based. The settings on record: for EC50: CHO cells expressing human μ receptor, cAMP, in the presence of forskolin, read-out: μ receptor EC50 value; for Emax: ratio to maximum reaction of control drug DAMGO taken as 100%; for μ receptor reaction rate at the maximum concentration (reference value, marked *): maximum reaction not reached, maximum concentration 10 μM, DAMGO = 100%. As to the method:
as §1, §2, §3, §4

Another data set concerns the target T3, human opioid κ receptor (Homo sapiens, UniProt P41145).
T3 construct: host or cells: CHO cells
The experiment in a line: Opioid receptor function test (Lance Ultra cAMP Kit), κ receptor. It counts as cell-based. The settings on record: for EC50: CHO cells expressing human κ receptor, cAMP, in the presence of forskolin; for Emax: ratio to maximum reaction of control drug U-69593 taken as 100%. As to the method:
as §1, §2, §3, §4

A short description of another data set: Metabolic stability test. The settings on record: liver microsomes; human hepatic microsomes, 0 to 60 minutes; read-out: metabolic clearance CLint. It counts as in vitro ADME. As to the method:
Human hepatic microsomes and a test substance were reacted for a certain period of time (0 to 60 minutes). The test substance, which was not metabolized in the reaction sample, was measured, and remaining ratio was calculated. The test substance-remaining ratio at the time when the reaction time is 0 hour is taken as 100%. The remaining ratio after incubation was plotted against time as a log-linear plot to obtain a regression line (y=100 e^−kt, k=inclination of straight line: clearance rate constant), and metabolic clearance CLint (mL/min/kg) was calculated by using the following equation. CLint*=k(−min)×52.5(mg MS protein/g liver)×26(g liver/kg)/MS protein (mg MS protein/mL) • *: Davies, B. and Morris T., Physiological parameters in laboratory animals and humans, Pharm. Res., 10(7)1093-1095, 1993 (Test Results)
(In general: Liver microsomes are vesicles of endoplasmic reticulum, rich in cytochrome P450 enzymes.)

Another data set has as its system C57BL/6N male mice. Put plainly: Mouse elevated plus maze test. It counts as in vivo. The settings on record: subcutaneous. As to the method:
Mouse Elevated Plus Maze Test
For the test, 5 to 6 weeks old C57BL/6N male mice were used. On a plus maze apparatus consisting of a wall-less running route (open arm, width 6 cm, length 30 cm) and a running route with a wall (closed arm, width 6 cm, length 30 cm, height of wall 15 cm), and having a height of 40 cm, a mouse was put so as to be directed to the running route with a wall, and allowed to spontaneously enter into the plus maze. Each test substance was dissolved in saline or 0.005 N HCl in saline, and subcutaneously administered on the back 30 minutes before the start of the test. At the time of the start of the test, video recording with a video camera was started, the time at which the mouse entered into the plus maze is considered to be the start of the test, and exploratory behavior was recorded for 5 minutes. On the basis of the video image, staying times in the running routes were determined, and wall-less running route staying time ratio (%) was calculated.

The next data set deals with T4, hERG potassium channel (Homo sapiens, UniProt Q12809).
T4 construct: host or cells: CHO cells
T4 sequence (Q12809 whole entry): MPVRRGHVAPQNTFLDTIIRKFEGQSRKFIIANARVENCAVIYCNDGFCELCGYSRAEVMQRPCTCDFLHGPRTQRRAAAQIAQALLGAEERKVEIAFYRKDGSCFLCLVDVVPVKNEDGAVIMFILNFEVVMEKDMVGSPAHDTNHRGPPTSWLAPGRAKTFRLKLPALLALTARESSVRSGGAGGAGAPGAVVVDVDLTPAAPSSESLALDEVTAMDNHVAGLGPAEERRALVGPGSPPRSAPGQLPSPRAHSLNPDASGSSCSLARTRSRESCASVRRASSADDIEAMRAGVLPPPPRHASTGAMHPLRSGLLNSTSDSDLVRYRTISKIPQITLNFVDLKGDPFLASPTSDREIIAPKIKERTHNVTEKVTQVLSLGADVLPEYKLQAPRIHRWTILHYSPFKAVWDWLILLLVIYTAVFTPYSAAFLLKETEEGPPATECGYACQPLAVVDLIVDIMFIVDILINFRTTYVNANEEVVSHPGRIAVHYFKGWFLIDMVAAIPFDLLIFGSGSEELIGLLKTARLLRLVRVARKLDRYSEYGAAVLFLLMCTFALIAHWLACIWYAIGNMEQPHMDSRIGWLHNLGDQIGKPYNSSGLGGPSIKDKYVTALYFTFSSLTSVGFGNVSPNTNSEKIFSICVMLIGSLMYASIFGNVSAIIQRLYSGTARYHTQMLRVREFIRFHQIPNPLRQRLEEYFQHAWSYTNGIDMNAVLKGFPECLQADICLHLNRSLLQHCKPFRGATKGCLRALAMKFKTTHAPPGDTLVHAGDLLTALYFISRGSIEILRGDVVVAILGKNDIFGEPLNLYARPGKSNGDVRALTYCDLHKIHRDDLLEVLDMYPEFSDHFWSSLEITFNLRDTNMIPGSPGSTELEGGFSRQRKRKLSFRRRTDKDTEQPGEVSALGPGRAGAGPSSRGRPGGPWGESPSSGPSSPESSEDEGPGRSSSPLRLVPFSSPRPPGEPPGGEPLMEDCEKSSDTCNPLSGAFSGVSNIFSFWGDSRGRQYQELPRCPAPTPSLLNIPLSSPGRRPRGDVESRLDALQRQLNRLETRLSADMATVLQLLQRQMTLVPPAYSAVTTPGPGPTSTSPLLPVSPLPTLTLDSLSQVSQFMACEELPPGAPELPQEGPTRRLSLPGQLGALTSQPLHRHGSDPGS
The experiment in a line: hERG potassium channel inhibition test (automatic patch clamp). The settings on record: pH 7.4, hERG-expressing CHO cells, tail current, read-out: hERG channel inhibitory action. The class given is cell-based. As to the method:
hERG (Human Ether-A-Go-Go-Related Gene) Potassium Channel Inhibition Test
The test was performed with Port-a-Patch automatic patch clump apparatus (Nanion Technologies) using hERG channel-stably expressing CHO cells (purchased from Channelopathy Foundation). The membrane potential of the cells was maintained at −80 mV, then there were applied a depolarization pulse at +20 mV for 1.5 seconds, and a following test pulse at −50 mV for 1.5 seconds at a frequency of 1 time per 10 seconds, and the hERG current was confirmed as a tail current induced by the test pulse. The test compound was dissolved in an extracellular fluid (137 mM NaCl, 4 mM KCl, 1.8 mM CaCl2, 1 mM MgCl2, 10 mM D(+)-glucose, 10 mM HEPES, pH 7.4), and the solution was refluxed at room temperature for 5 minutes. The inhibition ratio was obtained from the ratio of the tail current value observed after the compound was applied based on the tail current value observed before the compound was applied, which was taken as 100%.
(In general: hERG is a cardiac potassium channel; its block is linked to QT prolongation.)

In a further data set the test system is Wistar male rats. Put plainly: Rat elevated plus maze test. The class given is in vivo. To be noted: oral, 3 mg/kg, 2 hours before test (FIG. 6). As to the method:
Rat Elevated Plus Maze Test
Anxiolytic effects of the compounds provided by the present invention were investigated by the rat elevated plus maze test.
For the test, 7 to 9 weeks old Wistar male rats were used. […] Each test substance was dissolved in a 4.5% aqueous solution of cyclodextrin, and orally administered 2 hours before the start of the test. The test data were automatically analyzed by using video image action analysis software (Smart3.0, PanLab S.L., PanLab), and wall-less running route staying time ratio (%) was calculated.

T1 sequence (P41143 whole entry): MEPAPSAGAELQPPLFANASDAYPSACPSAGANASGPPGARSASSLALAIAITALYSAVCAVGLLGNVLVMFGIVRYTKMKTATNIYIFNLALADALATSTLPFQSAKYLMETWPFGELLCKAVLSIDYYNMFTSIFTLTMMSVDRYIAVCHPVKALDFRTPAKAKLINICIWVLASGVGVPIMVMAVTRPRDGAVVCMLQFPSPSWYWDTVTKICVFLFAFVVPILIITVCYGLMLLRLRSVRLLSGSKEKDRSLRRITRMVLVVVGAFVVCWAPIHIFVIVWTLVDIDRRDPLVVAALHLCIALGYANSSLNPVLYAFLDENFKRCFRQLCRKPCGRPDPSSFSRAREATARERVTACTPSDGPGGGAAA
T3 sequence (P41145 whole entry): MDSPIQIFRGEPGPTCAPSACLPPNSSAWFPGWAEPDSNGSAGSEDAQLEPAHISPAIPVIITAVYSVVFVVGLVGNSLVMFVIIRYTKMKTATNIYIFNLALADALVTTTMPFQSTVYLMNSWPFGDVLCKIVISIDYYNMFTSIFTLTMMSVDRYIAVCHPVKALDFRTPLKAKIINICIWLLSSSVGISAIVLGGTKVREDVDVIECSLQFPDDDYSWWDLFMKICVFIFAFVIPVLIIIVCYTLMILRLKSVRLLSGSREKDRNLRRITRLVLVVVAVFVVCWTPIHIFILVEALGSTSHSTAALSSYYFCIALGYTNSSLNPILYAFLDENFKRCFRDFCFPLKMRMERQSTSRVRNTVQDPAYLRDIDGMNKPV

Turning to `O=C(c1ccc(=O)[nH]n1)N1C[C@H]2C[C@@]34CC[C@@H]1[C@@H]2[C@@]31CCN(CC2CC2)[C@@H]4Cc2ccc(O)cc21` [Example 16, 6-((1S,3aR,5aS,6R,11bR,11cS)-14-(cyclopropylmethyl)-10-hydroxy-2,3,3a,4,5,6,7,11c-octahydro-1H-6,11b-(epiminoethano)-1,5a-methanonaphtho[1,2-e]indole-3-carbonyl)pyridazin-3(2H)-one], the figures for the EC50 at human opioid δ receptor, on human opioid μ receptor and on human opioid κ receptor were under 3 nM, over 1 nM and under 1 nM, respectively. Besides, the results for the Emax at human opioid δ receptor, at human opioid μ receptor and at human opioid κ receptor were 92%, 19% and 29%, respectively. The CLint scaled in “Metabolic stability test” was 18 mL/min/kg.

For `Cn1cc(C(=O)N2C[C@H]3C[C@@]45CC[C@@H]2[C@@H]3[C@@]42CCN(CC3CC3)[C@@H]5Cc3ccc(O)cc32)ccc1=O` [Example 9, 5-((1S,3aR,5aS,6R,11bR,11cS)-14-(cyclopropylmethyl)-10-hydroxy-2,3,3a,4,5,6,7,11c-octahydro-1H-6,11b-(epiminoethano)-1,5a-methanonaphtho[1,2-e]indole-3-carbonyl)-1-methylpyridin-2(1H)-one], the EC50 was under 3 nM at human opioid δ receptor, under 1 nM on human opioid μ receptor and under 1 nM on human opioid κ receptor. In addition, the Emax on human opioid δ receptor is 74%; on human opioid μ receptor it was 15%; on human opioid κ receptor, 14%. Moreover, the “wall-less running route staying time ratio” value in the data set with C57BL/6N male mice (dose not stated (FIGS. 3 to 5)) is given as “tendency of increasing”. Also, the inhibition at 5 min, 10 µM on hERG potassium channel is under 50%.

Take `O=C(c1ccc[nH]c1=O)N1C[C@H]2C[C@@]34CC[C@@H]1[C@@H]2[C@@]31CCN(CC2CC2)[C@@H]4Cc2ccc(O)cc21` [Example 3, 3-((1S,3aR,5aS,6R,11bR,11cS)-14-(cyclopropylmethyl)-10-hydroxy-2,3,3a,4,5,6,7,11c-octahydro-1H-6,11b-(epiminoethano)-1,5a-methanonaphtho[1,2-e]indole-3-carbonyl)pyridin-2(1H)-one]: the EC50 is under 3 nM on human opioid δ receptor, over 1 nM on human opioid μ receptor and under 1 nM on human opioid κ receptor. Besides, the Emax amounted to 98% at human opioid δ receptor, 20% at human opioid μ receptor and 15% at human opioid κ receptor. Also, the entries for the “wall-less running route staying time ratio” value in the data set on C57BL/6N male mice (dose not stated (FIGS. 3 to 5)) and with Wistar male rats were “tendency of increasing” and “significantly increased”, respectively. In addition, the inhibition at 5 min, 10 µM on hERG potassium channel is under 50%.

As to `O=C(c1cccc[n+]1[O-])N1C[C@H]2C[C@@]34CC[C@@H]1[C@@H]2[C@@]31CCN(CC2CC2)[C@@H]4Cc2ccc(O)cc21` [Example 1, 2-((1S,3aR,5aS,6R,11bR,11cS)-14-(cyclopropylmethyl)-10-hydroxy-2,3,3a,4,5,6,7,11c-octahydro-1H-6,11b-(epiminoethano)-1,5a-methanonaphtho[1,2-e]indole-3-carbonyl)pyridine 1-oxide], on human opioid δ receptor, the EC50 was under 3 nM and the Emax turned out to be 88%. For the same molecule, the “μ receptor reaction rate at the maximum concentration (reference value, marked *)” value on human opioid μ receptor is recorded as 8.3* %. Further, on human opioid κ receptor, the EC50 was over 1 nM and the Emax is 12%. In addition, the “wall-less running route staying time ratio” value in the data set with C57BL/6N male mice (3 mg/kg, 30 minutes before test (FIG. 1)) was “significantly increased”. Further, the inhibition at 5 min, 10 µM on hERG potassium channel is under 50%. In the data set “Metabolic stability test”, the CLint scaled stood at 19 mL/min/kg.

Take `Cn1c(C(=O)N2C[C@H]3C[C@@]45CC[C@@H]2[C@@H]3[C@@]42CCN(CC3CC3)[C@@H]5Cc3ccc(O)cc32)cccc1=O` [Example 10, 6-((1S,3aR,5aS,6R,11bR,11cS)-14-(cyclopropylmethyl)-10-hydroxy-2,3,3a,4,5,6,7,11c-octahydro-1H-6,11b-(epiminoethano)-1,5a-methanonaphtho[1,2-e]indole-3-carbonyl)-1-methylpyridin-2(1H)-one]: on human opioid δ receptor, the EC50 was under 3 nM and the Emax is 74%. Also, the “μ receptor reaction rate at the maximum concentration (reference value, marked *)” value at human opioid μ receptor is 6.0* %. Besides, the “κ receptor reaction rate at the maximum concentration (reference value, marked *)” value on human opioid κ receptor (maximum reaction not reached, maximum concentration 10 μM, U-69593 = 100%) is reported as −0.7* %. Moreover, in the data set with C57BL/6N male mice (dose not stated (FIGS. 3 to 5)), the “wall-less running route staying time ratio” value is on record as “tendency of increasing”. In addition, the “wall-less running route staying time ratio” value in the data set with Wistar male rats is given as “significantly increased”. The inhibition at 5 min, 10 µM on hERG potassium channel is under 50%. Besides, the CLint scaled in the data set “Metabolic stability test” came out at 13 mL/min/kg.
